Measurements reported in patent publication US5348980A, “Enantiomers derived from (S)-2-amino-2-(3,4-dichlorobenzyl)-1-propanol, their use and method of preparation” (Institute de Recherche Jouveinal, priority 1992, dated 1994).
Where a name gives a salt, the structure may show the parent alone.

Key:
Type in all cases: in vivo, guinea pigs
[1] = system: bronchoconstriction caused by 100 μmol/kg of histamine; assay: Histamine-induced bronchoconstriction test (Konzett and Rossler), i.v. administration; settings: for ED50: Cavia porcellus, iv
Text: (§1) Furthermore, the antihistaminic properties were studied in guinea pigs by the bronchoconstriction test performed according to the method of H. Konzett and R. Rossler (Arch. Exp. Path. Pharmak.--Naunym Schmiedeberg - 195, 71-74, 1940).
(§2) The products of the invention were studied in this test after administration in solution or in suspension via the intravenous and intraduodenal routes, and also in powder form via the intranasal route.
(§3) Irrespective of the administration route, the preparation of the animals employed in the test consists in first anesthetizing male guinea pigs weighing 350 to 400 g by intraperitoneal (i.p.) injection of a sterile and isotonic solution containing 25% (w/v.) of ethyl carbamate on the basis of 6.0 ml/kg, and in then fitting the animals with a tracheal cannula to permit measurement of the pulmonary pressure, a cannula in the right jugular vein for the intravenous (i.v.) administration of solution, and also a cannula in the left carotid artery for qualitative observation of the blood pressure.
(§4) The animals are then connected to a pump (Harvard, ref. 50-1718) in order to maintain an artificial ventilation at a frequency of 60 insufflations per minute; the intratracheal pressure is recorded by an assembly comprising a transducer, an amplifier and a recorder (Gould, respective refs.: PLOEZ, 13-4615-50 and 8188-G4400-06).
(§5) Fitted in this way, the animals are left undisturbed for 10 minutes before the beginning of the actual experiment, which is carried out in different ways according to the administration route envisaged.
(§6) In base form, the test products are dissolved in an isotonic solution (0.9% NaCl) containing 10% (v/v) of Transcutol (R). Dilutions are performed by adding isotonic solution. In salt, in particular hydrochloride, form, the solutions are prepared in the isotonic solution.
(§7) The treatment of the animals consists of a series of administrations of histamine dihydrochloride solution on the basis of 100 μmol/kg before and after treatment with the solution of test product, which is carried out according to the following time schedule:
(§8) t=-20 minutes - histamine (100 μmol/kg)
(§9) t=-10 minutes - ditto control
(§10) t=0 - injection of the test product
(§11) t=+10 minutes - histamine (100 μmol/kg)
(§12) - Calculation and expression of the results:
(§13) For each administration route and for each time of administration of histamine, the activity of the products is expressed as the percentage change in amplitude of bronchoconstriction, calculated relative to that produced by the "control" administration of histamine which precedes the administration of the test product. The % change is calculated according to the formula: [formula] in which: Bc(tx) represents the amplitude of the bronchoconstriction in mm at time x,
(§14) Bo(tx) the amplitude of the base-line respiration in mm at time x,
(§15) Bc(to) and Bo(to) the corresponding amplitudes in mm on receipt of the "control" administration of histamine which precedes that of the test product.
(§16) The inhibitory activity of the test products on histamine-induced bronchoconstriction is expressed at different times of the studies as their ED50, which is the effective dose of product, expressed in μmol/kg, capable of inhibiting 50% of the histamine-induced bronchoconstriction at the time in question.
(§17) Failing this expression, the results are expressed as a % change at the time in question and for a given concentration of the test product. Under these conditions, a positive percentage corresponds to a potentiating effect on bronchoconstriction and, conversely, a negative percentage to an inhibitory effect.
(§18) Statistical analyses of the results were carried out by the Student t test. A value of p<0.05 is considered significant.
(§19) The compounds of the invention described in Examples 1 and 2 were employed in these tests. In addition, as a comparative product for the eutomer of Example 1, the racemic (R,S) compound corresponding to it, and which is described and prepared in Example 7 of U.S. Pat. No. 4,994,617, was employed. […]

[2] = system: bronchoconstriction caused by 100 μmol/kg of histamine; assay: Histamine-induced bronchoconstriction test (Konzett and Rossler), intraduodenal (i.d.) administration; settings: for ED50: Cavia porcellus
Text: as §1, §2, §3, §4, §5
In base form, the test products are suspended in a solution containing 1% w/v of carboxymethylcellulose (CMC), and, in salt form, they are dissolved in an isotonic solution before being administered via a cannula whose end is placed in the animal's duodenum.
The time schedule for the successive administrations of histamine via the i.v. route and that for the test solution via the i.d. route are identical to that described above in a).
as §12, §13, §14, §15, §16, §17, §18, §19

[3] = system: bronchoconstriction caused by histamine; assay: Histamine-induced bronchoconstriction test (Konzett and Rossler), i.v. administration; settings: 3.5 μmol/kg, t = 10', statistically nonsignificant
Text: as §1, §2, §3, §4, §5, §6, §7, §8, §9, §10, §11, §12, §13, §14, §15, §16, §17, §18, §19

[4] = system: bronchoconstriction caused by 100 nmol/kg of histamine; assay: Histamine-induced bronchoconstriction test (Konzett and Rossler), intranasal-powder (In.P.) administration; settings: Cavia porcellus, 5 min, t = 5 min, read-out: ED50 at t = 5 min, inhibition of histamine-induced bronchoconstriction
Text: Furthermore, the antihistaminic properties were studied in guinea pigs by the bronchoconstriction test performed according to the method of H. Konzett and R. Rossler (Arch. Exp. Path. Pharmak.--Naunym Schmiedeberg - 195, 71-74, 1940). The products of the invention were studied in this test after administration in solution or in suspension via the intravenous and intraduodenal routes, and also in powder form via the intranasal route. Irrespective of the administration route, the preparation of the animals employed in the test consists in first anesthetizing male guinea pigs weighing 350 to 400 g by intraperitoneal (i.p.) injection of a sterile and isotonic solution containing 25% (w/v.) of ethyl carbamate on the basis of 6.0 ml/kg, and in then fitting the animals with a tracheal cannula to permit measurement of the pulmonary pressure, a cannula in the right jugular vein for the intravenous (i.v.) administration of solution, and also a cannula in the left carotid artery for qualitative observation of the blood pressure. The animals are then connected to a pump (Harvard, ref. 50-1718) in order to maintain an artificial ventilation at a frequency of 60 insufflations per minute; the intratracheal pressure is recorded by an assembly comprising a transducer, an amplifier and a recorder (Gould, respective refs.: PLOEZ, 13-4615-50 and 8188-[…]-06). Fitted in this way, the animals are left undisturbed for 10 minutes before the beginning of the actual experiment, which is carried out in different ways according to the administration route envisaged. c) intranasal-powder (In.p) administration The test product is administered via a nasal insufflation of a powder consisting of 20 mg of lactose loaded with the appropriate quantity of the test product. Before this insufflation, the artificial ventilation of the animal is momentarily stopped in order to facilitate the pulmonary penetration of the compound. […] Failing this expression, the results are expressed as a % change at the time in question and for a given concentration of the test product. […]

[5] = 10 min, t = 10', read-out: ED50, inhibition of histamine-induced bronchoconstriction, t = 10'
[6] = 20 min, t = 20', read-out: ED50, inhibition of histamine-induced bronchoconstriction, t = 20'
[7] = 0.5 h, t = 30', read-out: ED50, inhibition of histamine-induced bronchoconstriction, t = 30'
[8] = 40 min, t = 40', read-out: ED50, inhibition of histamine-induced bronchoconstriction, t = 40'
[9] = 50 min, t = 50', read-out: ED50, inhibition of histamine-induced bronchoconstriction, t = 50'
[10] = 1 h, t = 60', read-out: ED50, inhibition of histamine-induced bronchoconstriction, t = 60'
[11] = 3.5 μmol/kg, t = 20', statistically nonsignificant
[12] = 3.5 μmol/kg, t = 30', statistically nonsignificant
[13] = 3.5 μmol/kg, t = 40', statistically nonsignificant
[14] = 3.5 μmol/kg, t = 50', statistically nonsignificant
[15] = 3.5 μmol/kg, t = 60', statistically nonsignificant

**Q.** `C=CCN(C)C(C)(CO)Cc1ccc(Cl)c(Cl)c1` (racemic) [Comparative racemate. HCl] was tested. Which ED50 [1, 5] did it give?
**A.** The ED50 was 3.72 µmol/kg.

**Q.** And the ED50 [1, 6]?
**A.** Its ED50 is 2.11 µmol/kg.

**Q.** And the ED50 [1, 7]?
**A.** Its ED50 is 1.88 µmol/kg.

**Q.** And the ED50 [1, 8]?
**A.** The ED50 was 2.07 µmol/kg.

**Q.** What about the ED50 [1, 9] of the same molecule?
**A.** The ED50 was 2.34 µmol/kg.

**Q.** What about the ED50 [1, 10] of the same molecule?
**A.** The ED50 was 2.22 µmol/kg.

**Q.** For `C=CCN[C@](C)(CO)Cc1ccc(Cl)c(Cl)c1` [Example 1, (S)-(-)-N-allyl-2-amino-2-(3,4-dichlorobenzyl)-1-propanol], which ED50 [2, 6] is on record?
**A.** Its ED50 is 1 µmol/kg.

**Q.** What about the ED50 [2, 7] of the same molecule?
**A.** Its ED50 is 0.78 µmol/kg.

**Q.** What about the ED50 [2, 8] of the same molecule?
**A.** Its ED50 is 0.69 µmol/kg.

**Q.** And the ED50 [2, 9]?
**A.** The ED50 was 1.28 µmol/kg.

**Q.** And the ED50 [2, 10]?
**A.** The ED50 was 2.17 µmol/kg.

**Q.** What about the ED50 [1, 5] of the same molecule?
**A.** The ED50 was 4.89 µmol/kg.

**Q.** And the ED50 [1, 6]?
**A.** The ED50 was 2.88 µmol/kg.

**Q.** What about the ED50 [1, 7] of the same molecule?
**A.** The ED50 was 2.54 µmol/kg.

**Q.** What about the ED50 [1, 8] of the same molecule?
**A.** The ED50 was 2.58 µmol/kg.

**Q.** What about the ED50 [1, 9] of the same molecule?
**A.** The ED50 was 3.17 µmol/kg.

**Q.** What about the ED50 [1, 10] of the same molecule?
**A.** Its ED50 is 3.55 µmol/kg.

**Q.** What does the source list for `C=CCNC(C)(CO)Cc1ccc(Cl)c(Cl)c1` (racemic) [Comparative racemate]?
**A.** ED50 [1, 5]: 6.65 µmol/kg; ED50 [1, 6]: 4.1 µmol/kg; ED50 [1, 7]: 4.38 µmol/kg; ED50 [1, 8]: 3.39 µmol/kg; ED50 [1, 9]: 3.02 µmol/kg; ED50 [1, 10]: 3.52 µmol/kg

**Q.** What does the source list for `C=CCN(C)[C@@](C)(CO)Cc1ccc(Cl)c(Cl)c1` [Comparative distomer, (R)-(-)-N-allyl-2-methylamino-2-(3,4-dichlorobenzyl)-1-propanol, reference compound]?
**A.** effect on histamine activity (in words) [2]: perceptibly though not significantly in statistical terms, a potentiating effect on histamine activity; % potentiating effect on bronchoconstriction, t = 10' ([2]; 3.5 μmol/kg, t = 10', statistically nonsignificant): +5.8%; % potentiating effect on bronchoconstriction, t = 20' [2, 11]: +14.6%; % potentiating effect on bronchoconstriction, t = 30' [2, 12]: +32.4%; % potentiating effect on bronchoconstriction, t = 40' [2, 13]: +44.5%; % potentiating effect on bronchoconstriction, t = 50' [2, 14]: +35.6%; % potentiating effect on bronchoconstriction, t = 60' [2, 15]: +30.0%; effect on histamine activity (in words) [1]: perceptibly though not significantly in statistical terms, a potentiating effect on histamine activity; % potentiating effect on bronchoconstriction, t = 20' [1, 11]: +18.4%; % potentiating effect on bronchoconstriction, t = 30' [1, 12]: +28.2%; % potentiating effect on bronchoconstriction, t = 40' [1, 13]: +35.4%; % potentiating effect on bronchoconstriction, t = 50' [1, 14]: +36.7%; % potentiating effect on bronchoconstriction, t = 60' [1, 15]: +41.1%; % potentiating effect on bronchoconstriction, t = 10' [3]: +6.3%

**Q.** Which ED50 [4] does the source give for `CC1(C)Oc2ccc(C#N)cc2[C@H](N2CCCC2=O)[C@H]1O` (relative stereo) [Cromakalim (INN), reference compound] here?
**A.** Its ED50 is 1.88 µmol/kg.

**Q.** How did the ED50 [1, 5] turn out when `O=C1NCC2(CCN(CCc3ccccc3)CC2)O1` [Fenspiride (INN). HCl] was run?
**A.** Its ED50 is 4.25 µmol/kg.

**Q.** And the ED50 [1, 6]?
**A.** The ED50 was 4.99 µmol/kg.

**Q.** And the ED50 [1, 7]?
**A.** The ED50 was 6.26 µmol/kg.

**Q.** What about the ED50 [1, 8] of the same molecule?
**A.** The ED50 was 8.9 µmol/kg.

**Q.** And the ED50 [1, 9]?
**A.** Its ED50 is 8.01 µmol/kg.

**Q.** What about the ED50 [1, 10] of the same molecule?
**A.** The ED50 was 11 µmol/kg.
